Measurements reported in PMC10761119, “Phosphorylation-state dependent intraneuronal sorting of Aβ differentially impairs autophagy and the endo-lysosomal system” (Autophagy, 2023).
Blank lines part the entries; values can stand above or below the substance they belong to.

Experiments:
primary cortical neurons [1] = test: Western immunoblot of Aβ aggregation during incubation with neurons; format: cell-based, mouse; settings: Aβ 500 nM, 4 h; NuPAGE and western immunoblot with 82E1; compared to npAβ or p-Ser26Aβ
Experimental: Cells were collected by scraping and mechanically homogenized in hypotonic D buffer (10 mM Tris-HCl, pH 7.4, 10 mM NaCl, 0.1 mM EGTA, 25 mM glycerol 2-phosphate, 1 mM DTT) containing protease and phosphatase inhibitors by repeated suspension through a 23 G × 1” needle. Post-nuclear supernatant (PNS) was collected by centrifugation of the mechanically homogenized cellular material at 2,000 g for 5 min. The pellet was the nuclear material. […]
For different cellular fractions prepared as described earlier, the protein content was estimated using the standard Pierce™ BCA protein assay kit (ThermoFisher Scientific, 23225). […] Blots were developed either by enhanced chemiluminescence (ECL) or fluorescence imaging. […] Signals were detected with an ECL imager (Bio-Rad, Germany). For fluorescence detection, blots were imaged on a Li-COR imaging station (Li-COR Biosciences, Germany). […] Quantification of band signals was done using ImageJ – Gel processing module or Image Studio processing software (LiCOR Biosciences, Germany). All samples were analyzed in biological duplicates in two or three independent experiments as indicated in the respective figure legends. […]

[2] = cited from earlier work
primary cortical neurons [3] = test: ELISA of Aβ levels in the treatment media; format: cell-based, mouse; settings: 4 hours incubation, 500 nM, neurobasal FCS- PS- media, versus amount before incubation, n = 9, N = 3
Experimental: Primary cortical neurons (DIV14) were treated with 500 nM of monomeric/unaggregated Aβ variants ([…]β and p-[…]β) in neurobasal, FCS^- PS^- media. SH-SY5Y cells seeded on D1, were treated with Aβ variants (1 μM) on D3 in DMEM/F-12 media without serum and antibiotics. Control treatment included treatment with equal volume of 10 mM NaOH solution used for preparing the Aβ stock solutions, in respective cell culture medium. SH-SY5Y cells, after 16 h of transient expression of the reporter constructs, were treated with different Aβ variants, autophagy modulator substrates and respective controls in DMEM/F-12, FCS^- PS^- media for the mentioned time points. […] Cells were either collected by scraping using a cell-scraper or fixed with 4% PFA-PBS for 15 min at RT, for further immunocytochemistry experiments. Collected treatment media was centrifuged at 1000 g for 5 min, pellet discarded and supernatant frozen at -20°C until further usage. Plates (ThermoFisher Scientific, 44-2404-21) were coated with either […]6) or anti-pAβ antibodies ([…]11 and […]) as capture antibody at RT for 2 h and blocked with 1 mg/ml BSA solution in PBS. […] Multiple readings were recorded for a single well and averaged. In each experiment, each sample was analyzed in technical duplicate/triplicate wells as indicated and average values from an independent experiment are presented (Figures 1E, 3G, SA-D and Table S2).

SDS resistant aggregates formed during the incubation with neurons (primary cortical neurons [1]): forms more SDS resistant aggregates
Substance: amyloid-β phosphorylated at serine residue 8 [p-Ser8Aβ]

Substance: amyloid-β phosphorylated at serine residue 26 [p-Ser26Aβ]
Assemblies formed (effect of Ser26 phosphorylation) [2]: soluble oligomeric assemblies, rather than fibrillar assemblies

Levels of Aβ in the treatment media after incubation with primary neurons (primary cortical neurons [3]): significantly decreased
Substance: non-phosphorylated amyloid-β [npAβ, reference compound]
